Values quoted from earlier work as cited in US20100112181A1, “Recovery of Antioxidants from Decaffeination Process” (priority 2008, published 2010).

Settings: reported by K. Iwai et al., 2004

## dicaffeoylquinic acids [di-CQA's]
  antioxidant activity relative to CQA's (in words): higher antioxidant activity than the CQA's
